Columns and labels:
oat, wild = test: Test C pre-/postemergence herbicide test; type: in vivo, Avena fatua; conditions: Postemergence
Outline: (§1)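 Test compounds, formulated in a surfactant-containing non-phytotoxic solvent blend, are applied to seeded loam/sand soil (preemergence) and to young plants at the 1- to 4-leaf stage in peat-based medium (postemergence). Plants stay 13 to 15 days under greenhouse conditions, then are scored visually relative to controls, 0 = no effect, 100 = complete control.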

morningglory = test: Test C pre-/postemergence herbicide test; type: in vivo, Ipomoea coccinea
Outline: as §1

corn = test: Test C pre-/postemergence herbicide test; type: in vivo, Zea mays
Outline: as §1

rice = test: Test B flooded paddy test; type: in vivo, Oryza sativa; conditions: Flood, scale of 0 to 100 where 0 is no effect and 100 is complete control
Outline: (§2)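 Scored visually 0–100 (0 no effect, 100 complete control) versus controls after 13 to 15 greenhouse days. Treatment: compound added to paddy water kept 3 cm above soil, on 2-leaf-stage plants.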

oilseed rape = test: Test C pre-/postemergence herbicide test; type: in vivo, Brassica napus
Outline: as §1

soybean = test: Test C pre-/postemergence herbicide test; type: in vivo, Glycine max
Outline: as §1

pigweed = test: Test C pre-/postemergence herbicide test; type: in vivo, Amaranthus retroflexus
Outline: as §1

wheat (winter wheat) = test: Test C pre-/postemergence herbicide test; type: in vivo, Triticum aestivum
Outline: as §1

waterhemp = test: Test C pre-/postemergence herbicide test; type: in vivo, Amaranthus rudis
Outline: as §1

velvetleaf = test: Test C pre-/postemergence herbicide test; type: in vivo, Abutilon theophrasti
Outline: as §1

ducksalad = test: Test B flooded paddy test; type: in vivo, Heteranthera limosa; conditions: Flood, scale of 0 to 100 where 0 is no effect and 100 is complete control
Outline: as §2

barnyardgrass = test: Test C pre-/postemergence herbicide test; type: in vivo, Echinochloa crus-galli
Outline: as §1

[1] = 125 g ai/ha, scale 0 to 100 (0 no effect, 100 complete control)
[2] = 250 g ai/ha, scale 0 to 100 (0 no effect, 100 complete control)
[3] = Postemergence, 31 g ai/ha, scale 0 (no effect) to 100 (complete control)
[4] = Postemergence, 62 g ai/ha, scale 0 to 100 (0 no effect, 100 complete control)
[5] = Postemergence, 125 g ai/ha, scale 0 to 100 (0 no effect, 100 complete control)
[6] = Postemergence, 250 g ai/ha, scale 0 to 100 (0 no effect, 100 complete control)
[7] = Preemergence, 31 g ai/ha, scale 0 to 100, 0 is no effect and 100 is complete control
[8] = Preemergence, 62 g ai/ha, scale 0 to 100
[9] = Preemergence, 125 g ai/ha, scale 0 to 100 (0 no effect, 100 complete control)
[10] = Postemergence, 31 g ai/ha, scale 0 to 100 (0 no effect, 100 complete control)
[11] = Postemergence, 62 g ai/ha, scale 0 (no effect) to 100 (complete control)
[12] = Preemergence, 62 g ai/ha, scale 0 to 100 (0 no effect, 100 complete control)

O=C1NCC(c2ccc(C(F)(F)F)cc2)C1C(=O)Nc1cccc(F)c1F (stereo not shown) [Compound 80, N-(2,3-difluorophenyl)-2-oxo-4-[4-(trifluoromethyl)phenyl]-3-pyrrolidinecarboxamide]
75: Plant response rating, Pigweed (pigweed; [6]) | Pigweed plant response rating (pigweed; [7]) | Plant response rating, Ducksalad (ducksalad; 250 g ai/ha)
40: Plant response rating, Pigweed (pigweed; [3]) | Plant response rating, Pigweed (pigweed; [4])
5: Plant response rating, Morningglory (morningglory; [4]) | Plant response rating, Morningglory (morningglory; [5]) | Plant response rating, Morningglory (morningglory; [6]) | Plant response rating, Corn (corn; [4]) | Plant response rating, Corn (corn; [5]) | Oilseed Rape plant response rating (oilseed rape; [7]) | Plant response rating, Soybean (soybean; [4]) | Plant response rating, Soybean (soybean; [5]) | Plant response rating, Wheat (wheat (winter wheat); [8])
70: Plant response rating, Barnyardgrass (barnyardgrass; [6])
80: Plant response rating, Wheat (wheat (winter wheat); [9]) | Plant response rating (scale of 0 to 100), Wheat (wheat (winter wheat); Preemergence, 250 g ai/ha) | Plant response rating, Waterhemp (waterhemp; [8])
30: Plant response rating, Waterhemp (waterhemp; [3]) | Plant response rating, Velvetleaf (velvetleaf; [8])
95: Plant response rating, Barnyardgrass (barnyardgrass; [8]) | Plant response rating, Barnyardgrass (barnyardgrass; [9]) | Plant response rating (scale of 0 to 100; 0 is no effect, 100 is complete control), Barnyardgrass (barnyardgrass; Preemergence, 250 g ai/ha)
0: Plant response rating, Oat, Wild (oat, wild; 31 g ai/ha, scale 0 (no effect) to 100 (complete control)) | Plant response rating, Oat, Wild (oat, wild; 62 g ai/ha, scale 0 to 100 (0 no effect, 100 complete control)) | Plant response rating, Oat, Wild (oat, wild; [1]) | Plant response rating, Oat, Wild (oat, wild; [2]) | Plant response rating, Morningglory (morningglory; [3]) | Morningglory plant response rating (morningglory; [7]) | Plant response rating, Morningglory (morningglory; [8]) | Plant response rating, Corn (corn; [3]) | Corn plant response rating (corn; [7]) | Plant response rating, Corn (corn; [8]) | Plant response rating, Corn (corn; [9]) | Plant response rating, Rice (rice; 250 g ai/ha) | Plant response rating, Oilseed Rape (oilseed rape; [3]) | Plant response rating, Oilseed Rape (oilseed rape; [4]) | Plant response rating, Soybean (soybean; [3]) | Soybean plant response rating (soybean; [7]) | Plant response rating, Soybean (soybean; [8]) | Plant response rating, Soybean (soybean; [9]) | Plant response rating (scale of 0 to 100), Soybean (soybean; Preemergence, 250 g ai/ha) | Plant response rating, Wheat (wheat (winter wheat); [3]) | Plant response rating, Wheat (wheat (winter wheat); [4]) | Plant response rating, Wheat (wheat (winter wheat); [5]) | Plant response rating, Wheat (wheat (winter wheat); [6]) | Wheat plant response rating (wheat (winter wheat); [7]) | Velvetleaf plant response rating (velvetleaf; [7]) | Plant response rating, Barnyardgrass (barnyardgrass; [3])
35: Plant response rating, Velvetleaf (velvetleaf; [9]) | Plant response rating, Barnyardgrass (barnyardgrass; [5])
60: Plant response rating, Oilseed Rape (oilseed rape; [6]) | Plant response rating, Pigweed (pigweed; [5])
15: Waterhemp plant response rating (waterhemp; [7]) | Plant response rating, Velvetleaf (velvetleaf; [3]) | Plant response rating, Velvetleaf (velvetleaf; [4])
25: Plant response rating, Soybean (soybean; [6]) | Plant response rating, Velvetleaf (velvetleaf; [6])
85: Plant response rating, Oilseed Rape (oilseed rape; [8]) | Barnyardgrass plant response rating (barnyardgrass; [7])
90: Plant response rating, Oilseed Rape (oilseed rape; [9]) | Plant response rating (scale of 0 to 100), Oilseed Rape (oilseed rape; Preemergence, 250 g ai/ha) | Plant response rating, Pigweed (pigweed; [8]) | Plant response rating, Pigweed (pigweed; [9]) | Plant response rating (scale of 0 to 100), Pigweed (pigweed; Preemergence, 250 g ai/ha) | Plant response rating, Waterhemp (waterhemp; [9]) | Plant response rating (scale of 0 to 100), Waterhemp (waterhemp; Preemergence, 250 g ai/ha)
10: Plant response rating, Corn (corn; [6])
45: Plant response rating, Waterhemp (waterhemp; [4]) | Plant response rating, Waterhemp (waterhemp; [5])
20: Plant response rating, Morningglory (morningglory; [9]) | Plant response rating (scale of 0 to 100), Morningglory (morningglory; Preemergence, 250 g ai/ha) | Plant response rating, Oilseed Rape (oilseed rape; [5]) | Plant response rating, Barnyardgrass (barnyardgrass; [4])
65: Plant response rating (scale of 0 to 100), Corn (corn; Preemergence, 250 g ai/ha) | Plant response rating, Waterhemp (waterhemp; [6])
50: Plant response rating (scale of 0 to 100), Velvetleaf (velvetleaf; Preemergence, 250 g ai/ha)

CN1CC(c2ccc(F)c(F)c2)C(C(=O)Nc2cccc(F)c2F)C1=O (stereo not shown) [Compound 303]
15: Plant response rating, Morningglory (morningglory; [9]) | Plant response rating, Corn (corn; [6])
80: Plant response rating, Oilseed Rape (oilseed rape; [9]) | Plant response rating (scale of 0 to 100), Pigweed (pigweed; Preemergence, 250 g ai/ha)
65: Plant response rating, Pigweed (pigweed; [9]) | Waterhemp plant response rating (waterhemp; [12]) | Plant response rating, Waterhemp (waterhemp; [9])
50: Plant response rating, Velvetleaf (velvetleaf; [9])
45: Plant response rating (scale of 0 to 100), Morningglory (morningglory; Preemergence, 250 g ai/ha) | Plant response rating (scale of 0 to 100), Corn (corn; Preemergence, 250 g ai/ha)
35: Plant response rating, Corn (corn; [9]) | Oilseed Rape plant response rating (oilseed rape; [12]) | Pigweed plant response rating (pigweed; [7]) | Plant response rating, Waterhemp (waterhemp; [11]) | Plant response rating, Velvetleaf (velvetleaf; [10]) | Plant response rating, Velvetleaf (velvetleaf; [6])
98: Plant response rating (scale of 0 to 100; 0 is no effect, 100 is complete control), Barnyardgrass (barnyardgrass; Preemergence, 250 g ai/ha)
70: Plant response rating, Barnyardgrass (barnyardgrass; [5]) | Plant response rating, Barnyardgrass (barnyardgrass; [6])
10: Plant response rating, Morningglory (morningglory; [10]) | Corn plant response rating (corn; [7]) | Plant response rating, Pigweed (pigweed; [5]) | Velvetleaf plant response rating (velvetleaf; [7]) | Plant response rating, Barnyardgrass (barnyardgrass; [10])
30: Plant response rating, Rice (rice; 500 g ai/ha) | Plant response rating, Oilseed Rape (oilseed rape; [6])
85: Plant response rating (scale of 0 to 100), Oilseed Rape (oilseed rape; Preemergence, 250 g ai/ha)
100: Plant response rating, Ducksalad (ducksalad; 500 g ai/ha)
90: Plant response rating (scale of 0 to 100), Wheat (wheat (winter wheat); Preemergence, 250 g ai/ha) | Barnyardgrass plant response rating (barnyardgrass; [7])
75: Wheat plant response rating (wheat (winter wheat); [12]) | Plant response rating (scale of 0 to 100), Waterhemp (waterhemp; Preemergence, 250 g ai/ha)
40: Waterhemp plant response rating (waterhemp; [7])
0: Plant response rating, Oat, Wild (oat, wild; 31 g ai/ha, scale 0 to 100 (0 no effect, 100 complete control)) | Plant response rating, Oat, Wild (oat, wild; 62 g ai/ha, scale 0 (no effect) to 100 (complete control)) | Plant response rating, Oat, Wild (oat, wild; [1]) | Plant response rating, Oat, Wild (oat, wild; [2]) | Plant response rating, Morningglory (morningglory; [5]) | Plant response rating, Morningglory (morningglory; [6]) | Morningglory plant response rating (morningglory; [7]) | Morningglory plant response rating (morningglory; [12]) | Plant response rating, Corn (corn; [10]) | Plant response rating, Corn (corn; [11]) | Plant response rating, Corn (corn; [5]) | Plant response rating, Oilseed Rape (oilseed rape; [10]) | Plant response rating, Oilseed Rape (oilseed rape; [11]) | Plant response rating, Oilseed Rape (oilseed rape; [5]) | Oilseed Rape plant response rating (oilseed rape; [7]) | Plant response rating, Soybean (soybean; [10]) | Plant response rating, Soybean (soybean; [11]) | Plant response rating, Soybean (soybean; [5]) | Plant response rating, Soybean (soybean; [6]) | Soybean plant response rating (soybean; [7]) | Soybean plant response rating (soybean; [12]) | Plant response rating, Soybean (soybean; [9]) | Plant response rating, Pigweed (pigweed; [10]) | Plant response rating, Pigweed (pigweed; [11]) | Plant response rating, Wheat (wheat (winter wheat); [10]) | Plant response rating, Wheat (wheat (winter wheat); [11]) | Plant response rating, Wheat (wheat (winter wheat); [5]) | Plant response rating, Wheat (wheat (winter wheat); [6]) | Wheat plant response rating (wheat (winter wheat); [7]) | Plant response rating, Waterhemp (waterhemp; [10]) | Plant response rating, Waterhemp (waterhemp; [5]) | Plant response rating, Velvetleaf (velvetleaf; [11])
60: Plant response rating, Morningglory (morningglory; [11]) | Plant response rating, Barnyardgrass (barnyardgrass; [11])
25: Plant response rating, Pigweed (pigweed; [6]) | Plant response rating, Waterhemp (waterhemp; [6]) | Plant response rating, Velvetleaf (velvetleaf; [5]) | Velvetleaf plant response rating (velvetleaf; [12])
20: Corn plant response rating (corn; [12]) | Plant response rating (scale of 0 to 100), Soybean (soybean; Preemergence, 250 g ai/ha)
55: Pigweed plant response rating (pigweed; [12]) | Plant response rating (scale of 0 to 100), Velvetleaf (velvetleaf; Preemergence, 250 g ai/ha)
95: Barnyardgrass plant response rating (barnyardgrass; [12]) | Plant response rating, Barnyardgrass (barnyardgrass; [9])
